Experiments:
crabgrass [1] = experiment: Test A crabgrass; type: in vivo, Digitaria spp.; settings: 0 to 10 scale where 0 is no effect and 10 is complete control
In short: (§1)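 Injury scored visually after about eleven greenhouse days against untreated plants, 0 = no effect, 10 = complete control. Compounds, formulated in surfactant-containing non-phytotoxic solvent, were applied as preemergence soil drench to sandy loam plantings and as postemergence runoff spray at the 1–2 leaf stage.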

velvetleaf [2] = experiment: Test A velvetleaf; type: in vivo, Abutilon theophrasti; settings: 0 to 10 scale where 0 is no effect and 10 is complete control
In short: as §1

morningglory [3] = experiment: Test A morningglory; type: in vivo, Ipomoea spp.; settings: 0 to 10 scale where 0 is no effect and 10 is complete control
Method: Seeds of barnyardgrass (Echinochloa crus-galli), crabgrass (Digitaria spp.), morningglory (Ipomoea spp.), and velvetleaf (Abutilon theophrasti) were planted into a sandy loam soil and treated preemergence by soil drench with test chemicals formulated in a non-phytotoxic solvent mixture which includes a surfactant At the same time, these crop and weed species were also treated postemergence sprayed to runoff, with test chemicals formulated in the same manner.
Plants ranged in height from two to eighteen cm and were in the one to two leaf stage for the postemergence treatment. Treated plants and untreated controls were maintained in a greenhouse for approximately eleven days, after which all treated plants were compared to untreated controls and visually evaluated for injury. Plant response ratings, summarized in Table A, are based on a 0 to 10 scale where 0 is no effect and 10 is complete control.

barnyardgrass = experiment: Test A barnyardgrass; type: in vivo, Echinochloa crus-galli; settings: 0 to 10 scale where 0 is no effect and 10 is complete control
In short: as §1

wheat = experiment: Test B pre/postemergence wheat; type: in vivo, Triticum aestivum
In short: (§2)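 Test chemicals in a non-phytotoxic solvent mixture with surfactant were sprayed preemergence onto planted seeds and postemergence onto plants 2 to 18 cm tall (1- to 4-leaf stage). After twelve to sixteen days in a greenhouse, injury was visually rated against untreated controls from 0 (no effect) to 10 (complete control).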

crabgrass [4] = experiment: Test B pre/postemergence crabgrass; type: in vivo, Digitaria sanguinalis
In short: as §2

bedstraw = experiment: Test B pre/postemergence bedstraw; type: in vivo, Galium aparine; settings: Preemergence; for Bedstraw plant response rating: scale 0 to 10, 0 is no effect, 10 is complete control
In short: as §2

pigweed = experiment: Test B pre/postemergence pigweed; type: in vivo, Amaranthus retroflexus
In short: as §2

rice = experiment: Test B flood test rice; type: in vivo, Oryza sativa
In short: (§3)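 Read-out is a visual response score from 0 (no effect) to 10 (complete control), assigned by comparison with untreated controls. Treatment was applied at the 2-leaf stage, and plants stayed in the greenhouse for twelve to sixteen days before scoring.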

duck salad = experiment: Test B flood test duck salad; type: in vivo, Heteranthera limosa
In short: as §3

blackgrass = experiment: Test B pre/postemergence blackgrass; type: in vivo, Alopecurus myosuroides
In short: as §2

velvetleaf [5] = experiment: Test B pre/postemergence velvetleaf; type: in vivo, Abutilon theophrasti
In short: as §2

smallflower flatsedge = experiment: Test B flood test smallflower flatsedge; type: in vivo, Cyperus difformis
In short: as §3

rape = experiment: Test B pre/postemergence rape; type: in vivo, Brassica napus
In short: as §2

morningglory [6] = experiment: Test B pre/postemergence morningglory; type: in vivo, Ipomoea hederacea
In short: as §2

sugar beet = experiment: Test B pre/postemergence sugar beet; type: in vivo, Beta vulgaris
In short: as §2

giant foxtail = experiment: Test B pre/postemergence giant foxtail; type: in vivo, Setaria faberii
In short: as §2

corn = experiment: Test B pre/postemergence corn; type: in vivo, Zea mays
In short: as §2

wild oat = experiment: Test B pre/postemergence wild oat; type: in vivo, Avena fatua
In short: as §2

bamyardgrass = experiment: Test B flood test barnyardgrass; type: in vivo, Echinochloa crus-galli
In short: as §3

cocklebur = experiment: Test B pre/postemergence cocklebur; type: in vivo, Xanthium strumarium
In short: as §2

purple nutsedge = experiment: Test B pre/postemergence purple nutsedge; type: in vivo, Cyperus rotundus
In short: as §2

soybean = experiment: Test B pre/postemergence soybean; type: in vivo, Glycine max
In short: as §2

surinam grass = experiment: Test B pre/postemergence surinam grass; type: in vivo, Brachiaria decumbens
In short: as §2

[7] = Postemergence, Rate 125 g/ha, scale 0 to 10, 0 is no effect, 10 is complete control
[8] = Postemergence, Rate 500 g/ha, scale 0 to 10, 0 is no effect, 10 is complete control
[9] = Preemergence, Rate 62 g/ha, scale of 0 to 10 where 0 is no effect and 10 is complete control
[10] = Preemergence, Rate 125 g/ha, scale 0 to 10, 0 is no effect, 10 is complete control
[11] = Preemergence, Rate 500 g/ha, scale of 0 to 10 where 0 is no effect and 10 is complete control
[12] = Rate 62 g/ha, Postemergence, scale 0 to 10 (0 no effect, 10 complete control)
[13] = Postemergence, Rate 250 g/ha, scale 0 to 10
[14] = Rate 62 g/ha, flood test species, Pre-emergence, visual evaluation after twelve to sixteen days
[15] = Rate 125 g/ha, under heading Pre-emergence, flood test species, visual evaluation after twelve to sixteen days
[16] = Rate 250 g/ha, Pre-emergence (flood test species), scale 0 to 10, 0 is no effect, 10 is complete control
[17] = Rate 500 g/ha, Pre-emergence section of Table B, 0 to 10 scale (0 no effect, 10 complete control)
[18] = Preemergence, Rate 250 g/ha, scale 0 to 10, 0 is no effect, 10 is complete control

CC(C)N(C(=O)n1oc(=O)[nH]c1=O)c1ccc(Cl)cc1 [Compound 377]
Plant response rating, Crabgrass (crabgrass [1]; Postemergence, Rate 1000 g/ha): 0
Plant response rating, Crabgrass (crabgrass [1]; Pre-emergence, Rate 2000 g/ha): 0
Plant response rating, Velvetleaf (velvetleaf [2]; Postemergence, Rate 1000 g/ha): 0
Plant response rating, Velvetleaf (velvetleaf [2]; Pre-emergence, Rate 2000 g/ha): 0
Plant response rating, Morningglory (morningglory [3]; Postemergence, Rate 1000 g/ha): 0
Plant response rating, Morningglory (morningglory [3]; Pre-emergence, Rate 2000 g/ha): 0
Plant response rating, Barnyardgrass (barnyardgrass; Postemergence, Rate 1000 g/ha): 0
Plant response rating, Barnyardgrass (barnyardgrass; Pre-emergence, Rate 2000 g/ha): 0

CC(C)N(C(=O)n1oc(=O)n(CCCNC(=O)CCl)c1=O)c1ccccc1 [Compound 493]
Wheat plant response rating (wheat; [7]): 0
Plant response rating, Wheat (wheat; [8]): 0
Plant response rating, Wheat (wheat; [9]): 0
Wheat plant response rating (wheat; [10]): 0
Wheat plant response rating (wheat; [11]): 0
Wheat plant response rating (wheat; [12]): 0
Crabgrass plant response rating (crabgrass [4]; [7]): 0
Crabgrass plant response rating (crabgrass [4]; [13]): 0
Plant response rating, Crabgrass (crabgrass [4]; [8]): 4
Plant response rating, Crabgrass (crabgrass [4]; [9]): 0
Crabgrass plant response rating (crabgrass [4]; [10]): 0
Crabgrass plant response rating (crabgrass [4]; [11]): 2
Crabgrass plant response rating (crabgrass [4]; [12]): 0
Plant response rating, Bedstraw (bedstraw; Rate 62 g/ha, scale of 0 to 10 where 0 is no effect and 10 is complete control): 0
Bedstraw plant response rating (bedstraw; Rate 125 g/ha): 0
Bedstraw plant response rating (bedstraw; Rate 250 g/ha): 0
Bedstraw plant response rating (bedstraw; Rate 500 g/ha): 0
Redroot pigweed plant response rating (pigweed; [7]): 0
Plant response rating, Redroot pigweed (pigweed; [8]): 0
Plant response rating, Redroot pigweed (pigweed; [9]): 0
Redroot pigweed plant response rating (pigweed; [10]): 0
Redroot pigweed plant response rating (pigweed; [11]): 0
Redroot pigweed plant response rating (pigweed; [12]): 0
Plant response rating, Rice (0 to 10 scale, 0 is no effect, 10 is complete control) (rice; [14]): 0
Rice plant response rating (0 to 10 scale, 0 is no effect, 10 is complete control) (rice; [15]): 0
Rice plant response rating (rice; [16]): 0
Rice plant response rating (rice; [17]): 0
Plant response rating, Ducksalad (0 to 10 scale, 0 is no effect, 10 is complete control) (duck salad; [14]): 0
Ducksalad plant response rating (0 to 10 scale, 0 is no effect, 10 is complete control) (duck salad; [15]): 0
Ducksalad plant response rating (duck salad; [16]): 0
Ducksalad plant response rating (duck salad; [17]): 0
Blackgrass plant response rating (blackgrass; [7]): 0
Blackgrass plant response rating (blackgrass; [13]): 0
Plant response rating, Blackgrass (blackgrass; [8]): 0
Plant response rating, Blackgrass (blackgrass; [9]): 0
Blackgrass plant response rating (blackgrass; [10]): 0
Blackgrass plant response rating (blackgrass; [18]): 0
Blackgrass plant response rating (blackgrass; [11]): 0
Blackgrass plant response rating (blackgrass; [12]): 0
Velvetleaf plant response rating (velvetleaf [5]; [7]): 0
Plant response rating, Velvetleaf (velvetleaf [5]; [8]): 0
Plant response rating, Velvetleaf (velvetleaf [5]; [9]): 0
Velvetleaf plant response rating (velvetleaf [5]; [10]): 0
Velvetleaf plant response rating (velvetleaf [5]; [11]): 0
Velvetleaf plant response rating (velvetleaf [5]; [12]): 0
Plant response rating, S. Flatsedge (0 to 10 scale, 0 is no effect, 10 is complete control) (smallflower flatsedge; [14]): 0
S. Flatsedge plant response rating (0 to 10 scale, 0 is no effect, 10 is complete control) (smallflower flatsedge; [15]): 0
S. Flatsedge plant response rating (smallflower flatsedge; [16]): 0
S. Flatsedge plant response rating (smallflower flatsedge; [17]): 0
Rape plant response rating (rape; [7]): 0
Plant response rating, Rape (rape; [8]): 0
Plant response rating, Rape (rape; [9]): 0
Rape plant response rating (rape; [10]): 0
Rape plant response rating (rape; [11]): 0
Rape plant response rating (rape; [12]): 0
Morningglory plant response rating (morningglory [6]; [7]): 0
Plant response rating, Morningglory (morningglory [6]; [8]): 0
Plant response rating, Morningglory (morningglory [6]; [9]): 0
Morningglory plant response rating (morningglory [6]; [10]): 0
Morningglory plant response rating (morningglory [6]; [11]): 0
Morningglory plant response rating (morningglory [6]; [12]): 0
Sugarbeets plant response rating (sugar beet; [7]): 0
Plant response rating, Sugarbeets (sugar beet; [8]): 0
Plant response rating, Sugarbeets (sugar beet; [9]): 0
Sugarbeets plant response rating (sugar beet; [10]): 0
Sugarbeets plant response rating (sugar beet; [11]): 0
Sugarbeets plant response rating (sugar beet; [12]): 0
Giant foxtail plant response rating (giant foxtail; [7]): 0
Plant response rating, Giant foxtail (giant foxtail; [8]): 0
Plant response rating, Giant foxtail (giant foxtail; [9]): 3
Giant foxtail plant response rating (giant foxtail; [10]): 3
Giant foxtail plant response rating (giant foxtail; [11]): 10
Giant foxtail plant response rating (giant foxtail; [12]): 0
Corn plant response rating (corn; [7]): 0
Corn plant response rating (corn; [13]): 0
Plant response rating, Corn (corn; [8]): 0
Plant response rating, Corn (corn; [9]): 0
Corn plant response rating (corn; [10]): 0
Corn plant response rating (corn; [11]): 0
Corn plant response rating (corn; [12]): 0
Wild oats plant response rating (wild oat; [7]): 0
Plant response rating, Wild oats (wild oat; [8]): 0
Plant response rating, Wild oats (wild oat; [9]): 0
Wild oats plant response rating (wild oat; [10]): 0
Wild oats plant response rating (wild oat; [11]): 0
Wild oats plant response rating (wild oat; [12]): 0
Plant response rating, Barnyardgrass (0 to 10 scale, 0 is no effect, 10 is complete control) (bamyardgrass; [14]): 0
Barnyardgrass plant response rating (0 to 10 scale, 0 is no effect, 10 is complete control) (bamyardgrass; [15]): 0
Barnyardgrass plant response rating (bamyardgrass; [16]): 0
Barnyardgrass plant response rating (bamyardgrass; [17]): 0
Cocklebur plant response rating (cocklebur; [7]): 0
Cocklebur plant response rating (cocklebur; [13]): 0
Plant response rating, Cocklebur (cocklebur; [8]): 0
Plant response rating, Cocklebur (cocklebur; [9]): 0
Cocklebur plant response rating (cocklebur; [10]): 0
Cocklebur plant response rating (cocklebur; [18]): 0
Cocklebur plant response rating (cocklebur; [11]): 0
Cocklebur plant response rating (cocklebur; [12]): 0
Nutsedge plant response rating (purple nutsedge; [7]): 0
Plant response rating, Nutsedge (purple nutsedge; [8]): 0
Nutsedge plant response rating (purple nutsedge; [10]): 0
Nutsedge plant response rating (purple nutsedge; [11]): 0
Nutsedge plant response rating (purple nutsedge; [12]): 0
Soybean plant response rating (soybean; [7]): 0
Plant response rating, Soybean (soybean; [8]): 2
Plant response rating, Soybean (soybean; [9]): 0
Soybean plant response rating (soybean; [10]): 0
Soybean plant response rating (soybean; [11]): 0
B. signalgrass plant response rating (surinam grass; [7]): 0
B. signalgrass plant response rating (surinam grass; Postemergence, Rate 250 g/ha, scale 0 to 10, 0 no effect, 10 complete control): 0
Plant response rating, B. signalgrass (surinam grass; [8]): 0
Plant response rating, B. signalgrass (surinam grass; [9]): 0
B. signalgrass plant response rating (surinam grass; [10]): 0
B. signalgrass plant response rating (surinam grass; [18]): 0
B. signalgrass plant response rating (surinam grass; Preemergence, Rate 500 g/ha, scale 0 to 10, 0 is no effect, 10 is complete control): 0
B. signalgrass plant response rating (surinam grass; [12]): 0

— US6737383B1, “Herbicidal oxadiazolidines” (priority 1999, dated 2004)
